Data on eight molecules can be found in ChEMBL document CHEMBL5344402, “A multi-target directed ligands strategy for the treatment of Alzheimer's disease: Dimethyl fumarate plus Tranilast modified Dithiocarbate as AChE inhibitor and Nrf2 activator” (Eur J Med Chem, 2022).

Series [1] has as its target Acetylcholinesterase (Electrophorus electricus, UniProt O42275). Briefly: Inhibition of electric eel AChE using acetylthiocholine iodide as substrate preincubated for 5 mins followed by substrate addition by DTNB reagent based Ellman's method. For orientation: In Ellman's method for cholinesterases, released thiocholine reacts with DTNB.
In series [2] the target is Cholinesterase (Equus caballus) (UniProt P81908). Nature of the series: Inhibition of equine serum BuChE using butyrylthiocholine iodide as substrate at 10 uM preincubated for 5 mins followed by substrate addition by DTNB reagent based Ellman's method relative to control. The format is cell-free.
In series [3] the target is Acetylcholinesterase (Homo sapiens, UniProt P22303). Nature of the series: Inhibition of human AChE using acetylthiocholine iodide as substrate preincubated for 5 mins followed by substrate addition by DTNB reagent based Ellman's method.
Series [4] addresses Cholinesterase (Homo sapiens) (UniProt P06276). Briefly: Inhibition of human BuChE using butyrylthiocholine iodide as substrate at 10 uM preincubated for 5 mins followed by substrate addition by DTNB reagent based Ellman's method relative to control.
Series [5] in a line: in vitro. The settings on record: PAMPA. On the technique in general: PAMPA measures passive passage across an artificial lipid membrane.

pIC50: −log10 of the molar value.

Sequence of Acetylcholinesterase (Electrophorus electricus, UniProt O42275) (O42275 whole entry): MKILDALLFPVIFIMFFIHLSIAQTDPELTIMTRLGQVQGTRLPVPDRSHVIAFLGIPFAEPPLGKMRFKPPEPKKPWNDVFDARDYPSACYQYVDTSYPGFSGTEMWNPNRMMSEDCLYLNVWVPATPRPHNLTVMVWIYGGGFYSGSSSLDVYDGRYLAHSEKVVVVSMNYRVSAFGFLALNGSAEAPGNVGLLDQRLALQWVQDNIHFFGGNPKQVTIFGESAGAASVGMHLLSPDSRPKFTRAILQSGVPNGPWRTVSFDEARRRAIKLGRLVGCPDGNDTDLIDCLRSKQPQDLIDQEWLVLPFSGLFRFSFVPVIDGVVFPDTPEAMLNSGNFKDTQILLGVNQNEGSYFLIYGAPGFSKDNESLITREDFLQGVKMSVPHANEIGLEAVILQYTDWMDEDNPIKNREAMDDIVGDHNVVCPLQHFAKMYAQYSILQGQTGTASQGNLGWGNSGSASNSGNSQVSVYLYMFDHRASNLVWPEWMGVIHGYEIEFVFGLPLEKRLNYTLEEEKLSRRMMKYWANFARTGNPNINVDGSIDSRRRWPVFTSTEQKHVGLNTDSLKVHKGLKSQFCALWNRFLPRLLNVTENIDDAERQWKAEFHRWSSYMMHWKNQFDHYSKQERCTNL
Sequence of Cholinesterase (Equus caballus) (P81908 whole entry): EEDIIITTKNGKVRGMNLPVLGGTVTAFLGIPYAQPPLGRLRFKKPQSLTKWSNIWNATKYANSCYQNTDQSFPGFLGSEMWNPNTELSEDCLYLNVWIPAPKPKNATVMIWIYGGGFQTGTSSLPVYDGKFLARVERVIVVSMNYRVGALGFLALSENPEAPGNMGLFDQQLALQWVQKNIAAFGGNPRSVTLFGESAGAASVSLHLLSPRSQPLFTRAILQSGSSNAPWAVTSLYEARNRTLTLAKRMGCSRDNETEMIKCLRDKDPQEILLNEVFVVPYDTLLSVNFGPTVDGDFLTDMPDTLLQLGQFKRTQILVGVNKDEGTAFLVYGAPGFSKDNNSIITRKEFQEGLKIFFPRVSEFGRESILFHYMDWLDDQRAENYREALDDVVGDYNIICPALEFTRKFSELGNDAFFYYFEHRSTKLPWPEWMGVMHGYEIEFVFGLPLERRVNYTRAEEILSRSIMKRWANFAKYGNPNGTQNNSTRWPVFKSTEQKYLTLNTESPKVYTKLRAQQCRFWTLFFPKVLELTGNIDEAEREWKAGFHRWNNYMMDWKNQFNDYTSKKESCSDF
Sequence of Cholinesterase (Homo sapiens) (P06276 whole entry): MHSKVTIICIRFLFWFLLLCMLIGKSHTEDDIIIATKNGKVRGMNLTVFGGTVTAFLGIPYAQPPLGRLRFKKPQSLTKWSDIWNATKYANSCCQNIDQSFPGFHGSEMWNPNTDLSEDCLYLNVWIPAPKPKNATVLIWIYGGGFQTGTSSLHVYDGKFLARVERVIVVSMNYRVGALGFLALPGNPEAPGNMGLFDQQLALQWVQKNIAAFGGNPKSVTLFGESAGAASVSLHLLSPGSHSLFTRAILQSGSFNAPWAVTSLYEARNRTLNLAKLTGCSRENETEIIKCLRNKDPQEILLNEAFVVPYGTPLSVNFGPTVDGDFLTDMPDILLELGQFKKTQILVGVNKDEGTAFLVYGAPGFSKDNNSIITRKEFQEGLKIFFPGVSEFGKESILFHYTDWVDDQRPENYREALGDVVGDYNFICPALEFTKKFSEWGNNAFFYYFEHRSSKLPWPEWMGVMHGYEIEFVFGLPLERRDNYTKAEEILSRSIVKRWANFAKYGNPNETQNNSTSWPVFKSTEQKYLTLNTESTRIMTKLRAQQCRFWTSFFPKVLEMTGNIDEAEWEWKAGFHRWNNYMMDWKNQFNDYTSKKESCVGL
Sequence of Acetylcholinesterase (Homo sapiens, UniProt P22303) (P22303 whole entry): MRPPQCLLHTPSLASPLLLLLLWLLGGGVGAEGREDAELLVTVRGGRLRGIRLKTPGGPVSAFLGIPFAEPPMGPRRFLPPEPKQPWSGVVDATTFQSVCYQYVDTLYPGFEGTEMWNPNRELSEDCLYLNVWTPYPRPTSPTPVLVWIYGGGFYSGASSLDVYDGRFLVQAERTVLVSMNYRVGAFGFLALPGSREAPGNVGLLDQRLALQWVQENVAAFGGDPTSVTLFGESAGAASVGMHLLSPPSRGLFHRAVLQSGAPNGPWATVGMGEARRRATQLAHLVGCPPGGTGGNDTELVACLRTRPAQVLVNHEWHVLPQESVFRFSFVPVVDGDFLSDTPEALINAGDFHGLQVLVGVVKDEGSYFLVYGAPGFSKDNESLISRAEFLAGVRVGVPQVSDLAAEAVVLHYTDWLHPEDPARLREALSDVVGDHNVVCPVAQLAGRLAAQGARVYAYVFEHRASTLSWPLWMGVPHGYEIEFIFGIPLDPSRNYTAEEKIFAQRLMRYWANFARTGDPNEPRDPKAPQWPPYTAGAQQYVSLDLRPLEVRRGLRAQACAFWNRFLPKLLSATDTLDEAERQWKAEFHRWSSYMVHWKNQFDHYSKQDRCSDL

With `COC(=O)/C=C/C(=O)Nc1cccc(OCCCCSC(=S)N2CCN(C)CC2)c1`, the negative-log IC50 (pIC50) in series [1] is 4.04. Moreover, the inhibition in series [2] is > 5%.

Consider `COC(=O)/C=C/C(=O)Nc1cccc(OCCCSC(=S)N2CCCCC2)c1`, for which the pIC50 in series [1] is 5.62; in series [3] it was 5.70. The results for the inhibition in series [2] and in series [4] were 13.2% and 7.06%, respectively. The same molecule returned a Papp at 18 h in series [5] of 13 ×10⁻⁶ cm/s.

Molecule `COC(=O)/C=C/C(=O)Nc1cccc(OCCCCSC(=S)N2C(C)CCCC2C)c1` (stereo unspecified) gave a pIC50 in series [1] of 4.78. The molecule also came in with an inhibition in series [2] of 7.14%.

`CCN(CC)C(=S)SCCCCOc1cccc(NC(=O)/C=C/C(=O)OC)c1`: the pIC50 in series [1] was 4.95. For the same molecule, in series [2], the inhibition was > 5%.

In series [5], `CC(=O)[C@H]1CC[C@H]2[C@@H]3CCC4=CC(=O)CC[C@]4(C)[C@H]3CC[C@]12C` [PROGESTERONE] came in with a Papp at 18 h of 11.2 ×10⁻⁶ cm/s.

In turn, `COC(=O)/C=C/C(=O)Nc1cccc(OCCCCCCSC(=S)N2CCCCC2)c1` gave a pIC50 in series [1] of 4.54. Besides, the inhibition in series [2] was < 5%.

On to `COC(=O)/C=C/C(=O)Nc1cccc(OCCSC(=S)N2CCCCC2)c1`, for which the pIC50 in series [1] is 5.59; in series [3], 5.86. Further, the inhibition in series [2] was found to be 12.8%; in series [4] it was 6.83%. Also, the Papp at 18 h in series [5] was found to be 21.3 ×10⁻⁶ cm/s.

As to `COC(=O)/C=C/C(=O)Nc1cccc(OCCCCSC(=S)N2CCC(C)CC2)c1`, the pIC50 in series [1] was 4.71. This molecule also gave an inhibition in series [2] of 8.48%.

What is called pIC50 is −log10 of the IC50, conventionally taken in molar units. A higher pIC50 goes with a low IC50. The term inhibition denotes the share of the control response that was lost under treatment. For orientation: Papp means a coefficient for how fast a substance crosses the barrier. Read a high Papp as fast passage.
